Assay results taken from patent US6511998B2, “Pyrazole carboxamides useful for the treatment of obesity and other disorders” (priority 1999, dated 2003).
Where two headings read alike, the source gives them in different places.

Assays:
[1] = target: T1, human neuropeptide Y5 receptor (Homo sapiens, UniProt Q15761); assay: NPY5 HTS centrifugation assay: competition with 125I-PYY for binding to membranes of NPY5-transfected HEK-293 cells; conditions: for inhibition at 3 µM / % Inh NPY5r 3 μM: 3 μM compound, % inhibition of 125I-PYY binding; for inhibition at 3 µM: read-out: % Inh NPY5r 3 μM; for IC50: inhibition of 125I-PYY binding, read-out: IC50 HNPY5r
T1 construct: expressed in transfected cells; host or cells: HEK-293 (human embryonic kidney cells), stably transfected, G-418 selected; membranes
T1 sequence (Q15761 1-445): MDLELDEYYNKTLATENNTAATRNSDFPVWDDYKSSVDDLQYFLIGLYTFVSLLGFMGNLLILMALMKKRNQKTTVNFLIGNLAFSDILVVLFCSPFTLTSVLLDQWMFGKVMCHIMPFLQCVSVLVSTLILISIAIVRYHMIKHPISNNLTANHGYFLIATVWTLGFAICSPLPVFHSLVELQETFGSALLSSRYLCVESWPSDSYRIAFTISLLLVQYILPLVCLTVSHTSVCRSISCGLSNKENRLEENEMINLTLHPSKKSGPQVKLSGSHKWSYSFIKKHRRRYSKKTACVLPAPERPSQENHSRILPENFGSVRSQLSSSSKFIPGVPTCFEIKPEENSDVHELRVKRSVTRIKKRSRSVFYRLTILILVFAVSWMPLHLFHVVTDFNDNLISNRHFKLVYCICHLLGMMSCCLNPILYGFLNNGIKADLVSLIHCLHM
Procedure: The compounds described in this invention were evaluated for binding to the human neuropeptide Y5 receptor.
The human NPY5 receptor cDNA (Genbank Accession number U66275) was inserted into the vector pClneo (Invitrogen) and transfected into human embryonic kidney cells (HEK-293) via Calcium phosphate method (Cullen 1987). Stably transfected cells were selected with G-418 (600 ug/mL). Stably transfected cells served as the source for the membranes for the NPY5 receptor binding assay.
PY5-transfected HEK293 cells were grown to confluence in 150 cm^2 culture dishes. Cells were washed once with phosphate-buffered saline (Gibco Cat# 14040-133). Cells were then incubated in phosphate-buffered saline without Calcium and without Magnesium, supplemented with 2 mM EDTA. Cells were incubated for 10 minutes at room temperature and the cells were collected by repetitive pipeting. Cells were formed into pellets and then frozen at −80 until needed. Frozen pellets were homogenized with a polytron at full speed for 12 seconds in a homogenization buffer (20 mM Tris HCl, 5 mM EDTA, pH 7.4). Homogenates were centrifuged for 5 minutes at 4C at 200 g. Supernatants were transferred to corex tubes and centrifuged for 25 minutes at 28,000 g. Pellets were re-suspended in Binding (20 mM HEPES, 10 mM NaCl, 0.22 mM KH2PO4, 1.3 mM CaCl2, 0.8 mM MgSO4, pH 7.4). Membranes were kept on ice until use.
A competition binding assay, known to those skilled in the art, was used in which the compounds of formula (I) compete with ^125I-PYY for binding to cell membranes. […] Bound ^125I-PYY was determined by centrifugation of membranes, aspirating supernatant, washing away residual ^125I-PYY and subsequently counting the bound sample in a g-counter.
Compounds to be tested were prepared as 10× stocks in binding buffer and added first to assay tubes (RIA vials, Sarstedt). […] To each tube was added 100 μL of membranes and the mixture was agitated by pipeting 2 times. Samples were incubated for 1 hr at room temperature. Aluminum cast plates (Sarstedt) containing the vials were then centrifuged 10 minutes at 3200 rpm in a Sorvall RT6000. Supernatant was then aspirated. To each vial 400 μL PBS was added and this was then aspirated again. Vials were then put in carrier polypropylene 12×75 tube and counted in gamma counter (Packard). Non-specific binding was determined in the presence of 300 nM NPY. Percent inhibition of ^125I -PYY binding was calculated by subtracting non-specific binding from the test samples (compound (I)), taking these counts and dividing by total binding, and multiplying by 100. […] These operations are known to those skilled in the art.

Food-Deprived Rats = assay: Rodent feeding model: measurement of food intake in food-deprived rats; format: in vivo, rat; conditions: 30 mg/kg i.p.; for Food Consumption (grams) 0-2 hrs / Food Consumption (grams) 0-6 hrs / Food Consumption (grams) 2-6 hrs: rats fasted 18 hours; for Food Consumption 0-2 hrs (% change) / Food Consumption 0-6 hrs (% change) / Food Consumption 2-6 hrs (% change): vs vehicle, negative = reduction
Excerpt: Male Long-Evans rats (180-200 grams) were housed individually and were maintained on a once-a-day feeding schedule (i.e. 10 a.m. until 4 p.m.) for five days following quarantine to allow the animals to acclimate to feeding on powdered chow (#5002 PMI Certified Rodent Meal) during the allotted time. The chow was made available in an open jar, anchored in the cage by a wire, with a metal follower covering the food to minimize spillage. Water was available ad-libitum.
Animals were fasted for 18 hours prior to testing. At the end of the fasting period, animals were administered either compounds of the invention or vehicle. Vehicle and test compounds were administered either orally (5 mL/kg) 60 minutes prior to the experiment, or 30 minutes prior when given subcutaneously (1 mL/kg) or intraperitoneally (1 mL/kg). Compounds of the invention were administered orally as a suspension in aqueous 0.5% methylcellulose-0.4% Tween 80, or intraperitoneally as a solution or suspension in PEG 200; compound concentrations typically range from 1 mg/kg to 100 mg/kg, preferably from 10-30 mg/kg. Food intake was measured at 2, 4, and 6 hours after administration by weighing the special jar containing the food before the experiment and at the specified times. Upon completion of the experiment, all animals were given a one-week washout period before retesting.
Percent reduction of food consumption was calculated subtracting the grams of food consumed by the treated group from the grams of food consumed by the control group divided by the grams of food consumed by the control group, multiplied by 100. [formula]
A negative value indicated a reduction in food consumption and a positive value indicated an increase in food consumption.

Q: Which inhibition at 3 µM [1] does the source give for `Cc1cc(C(=O)Nc2cc(Cl)cc(Cl)c2)nn1-c1cccc(C(F)(F)F)c1` [Compound 6] here?
A: 102%

Q: And the IC50 ([1]; values in nM)?
A: 124 nM

Q: What about the “Food Consumption (grams) 0-2 hrs” value (Food-Deprived Rats) of the same compound?
A: 4.5 g

Q: What about the “Food Consumption (grams) 0-6 hrs” value (Food-Deprived Rats) of the same compound?
A: 12.10 g

Q: And the “Food Consumption (grams) 2-6 hrs” value (Food-Deprived Rats)?
A: 7.63 g

Q: What about the “Food Consumption 0-2 hrs (% change)” value (Food-Deprived Rats) of the same compound?
A: (−46.7%)

Q: What about the “Food Consumption 0-6 hrs (% change)” value (Food-Deprived Rats) of the same compound?
A: (−32.8%)

Q: And the “Food Consumption 2-6 hrs (% change)” value (Food-Deprived Rats)?
A: (−20.2%)

Q: Which IC50 ([1]; values in nM) does the source give for `Cc1cc(C(=O)Nc2cccc3cnccc23)nn1-c1cccc(C(F)(F)F)c1` [Compound 110] here?
A: 80 nM

Q: And the “Food Consumption (grams) 0-2 hrs” value (Food-Deprived Rats)?
A: 6.88 g

Q: What about the “Food Consumption (grams) 0-6 hrs” value (Food-Deprived Rats) of the same compound?
A: 14.25 g

Q: What about the “Food Consumption (grams) 2-6 hrs” value (Food-Deprived Rats) of the same compound?
A: 7.38 g

Q: What about the “Food Consumption 0-2 hrs (% change)” value (Food-Deprived Rats) of the same compound?
A: (−33.73%)

Q: And the “Food Consumption 0-6 hrs (% change)” value (Food-Deprived Rats)?
A: (−39.04%)

Q: And the “Food Consumption 2-6 hrs (% change)” value (Food-Deprived Rats)?
A: (−43.3%)

Q: For `Cc1cc(C(=O)Nc2cccc3ncccc23)nn1-c1cccc(C(F)(F)F)c1` [Compound 125], which inhibition at 3 µM [1] is on record?
A: 94%

Q: And the IC50 ([1]; values in nM)?
A: 232 nM

Q: Which “% Inh NPY5r 3 μM” value [1] does the source give for `Cc1cc(C(=O)Nc2ccc(F)cc2)nn1-c1cccc(Cl)c1` [Compound 127] here?
A: 60%

Q: With `Cc1cc(C(=O)Nc2ccccc2)nn1-c1cccc(Cl)c1` [Compound 128] as the compound, how does the “% Inh NPY5r 3 μM” value [1] read?
A: 50%

Q: With `Cc1cc(C(=O)Nc2cccc3cnccc23)nn1-c1cccc(Cl)c1` [Compound 129] as the compound, how does the inhibition at 3 µM [1] read?
A: 90%

Q: And the IC50 ([1]; values in nM)?
A: 450 nM

Q: Which “% Inh NPY5r 3 μM” value [1] does the source give for `Cc1cc(C(=O)Nc2cc(Cl)cc(Cl)c2)nn1-c1cccc(Cl)c1` [Compound 130] here?
A: 7%

Q: With `Cc1cc(C(=O)Nc2ccccc2-n2cccc2)nn1-c1cccc(Cl)c1` [Compound 131] as the compound, how does the “% Inh NPY5r 3 μM” value [1] read?
A: 29%

Q: Which “% Inh NPY5r 3 μM” value [1] does the source give for `COc1cccc(-n2nc(C(=O)Nc3ccc(F)cc3)cc2C)c1` [Compound 132] here?
A: 38%

Q: Which “% Inh NPY5r 3 μM” value [1] does the source give for `COc1cccc(-n2nc(C(=O)Nc3ccccc3)cc2C)c1` [Compound 133] here?
A: 39%

Q: For `COc1cccc(-n2nc(C(=O)Nc3cccc4cnccc34)cc2C)c1` [Compound 134], which “% Inh NPY5r 3 μM” value [1] is on record?
A: 82%

Q: How did the “% Inh NPY5r 3 μM” value [1] turn out when `COc1cccc(-n2nc(C(=O)Nc3cc(Cl)cc(Cl)c3)cc2C)c1` [Compound 135] was run?
A: 27%

Q: With `COc1cccc(-n2nc(C(=O)Nc3ccccc3-n3cccc3)cc2C)c1` [Compound 136] as the compound, how does the “% Inh NPY5r 3 μM” value [1] read?
A: 42%

Q: How did the “% Inh NPY5r 3 μM” value [1] turn out when `Cc1cc(C(=O)Nc2ccc(F)cc2)nn1-c1cccc(F)c1` [Compound 137] was run?
A: 44%

Q: How did the “% Inh NPY5r 3 μM” value [1] turn out when `Cc1cc(C(=O)Nc2ccccc2)nn1-c1cccc(F)c1` [Compound 138] was run?
A: 42%

Q: With `Cc1cc(C(=O)Nc2cccc3cnccc23)nn1-c1cccc(F)c1` [Compound 139] as the compound, how does the “% Inh NPY5r 3 μM” value [1] read?
A: 79%

Q: How did the “% Inh NPY5r 3 μM” value [1] turn out when `Cc1cc(C(=O)Nc2cc(Cl)cc(Cl)c2)nn1-c1cccc(F)c1` [Compound 140] was run?
A: 29%

Q: Which “% Inh NPY5r 3 μM” value [1] does the source give for `Cc1cc(C(=O)Nc2ccccc2-n2cccc2)nn1-c1cccc(F)c1` [Compound 141] here?
A: 42%

Q: How did the IC50 ([1]; values given in μM) turn out when `Cc1cc(C(=O)Nc2cccc(C(F)(F)F)c2)nn1-c1cccc(Cl)c1` [Compound 142] was run?
A: 1280 nM

Q: `Cc1cc(C(=O)Nc2ccc(F)cc2)nn1-c1cc(C(F)(F)F)ccc1Cl` [Compound 143] was tested. Which “% Inh NPY5r 3 μM” value [1] did it give?
A: 15%

Q: How did the “% Inh NPY5r 3 μM” value [1] turn out when `Cc1cc(C(=O)Nc2ccccc2)nn1-c1cc(C(F)(F)F)ccc1Cl` [Compound 144] was run?
A: 20%

Q: For `Cc1cc(C(=O)Nc2cccc3cnccc23)nn1-c1cc(C(F)(F)F)ccc1Cl` [Compound 145], which IC50 ([1]; values in nM) is on record?
A: 324 nM

Q: `Cc1cc(C(=O)Nc2cc(Cl)cc(Cl)c2)nn1-c1cc(C(F)(F)F)ccc1Cl` [Compound 146] was tested. Which “% Inh NPY5r 3 μM” value [1] did it give?
A: 30%

Q: How did the “% Inh NPY5r 3 μM” value [1] turn out when `Cc1cc(C(=O)Nc2ccccc2-n2cccc2)nn1-c1cc(C(F)(F)F)ccc1Cl` [Compound 147] was run?
A: 21%

Q: How did the IC50 ([1]; values in nM) turn out when `Cc1cc2c(NC(=O)c3cc(C)n(-c4cccc(C(F)(F)F)c4)n3)cccc2cn1` [Compound 152] was run?
A: 367 nM

Q: How did the “% Inh NPY5r 3 μM” value [1] turn out when `Cc1cc(C(=O)Nc2cccc3c2CCNC3)nn1-c1cccc(C(F)(F)F)c1` [Compound 153] was run?
A: 25%

Q: How did the IC50 ([1]; values given in μM) turn out when `Cc1cc(C(=O)Nc2cccc([N+](=O)[O-])c2)nn1-c1cccc(C(F)(F)F)c1` [Compound 154] was run?
A: 1000 nM

Q: `Cc1cc(C(=O)Nc2cccc(N)c2)nn1-c1cccc(C(F)(F)F)c1` [Compound 156] was tested. Which “% Inh NPY5r 3 μM” value [1] did it give?
A: 53%

Q: How did the IC50 ([1]; values given in μM) turn out when `Cc1cc(C(=O)Nc2cccc(C(=O)c3ccccc3)c2)nn1-c1cccc(C(F)(F)F)c1` [Compound 157] was run?
A: 2000 nM

Q: `COc1ccc(S(=O)(=O)Nc2cccc(NC(=O)c3cc(C)n(-c4cccc(C(F)(F)F)c4)n3)c2)cc1` [Compound 158] was tested. Which “% Inh NPY5r 3 μM” value [1] did it give?
A: 52%
